Values of other authors as cited in patent publication US8092783B2, “Gadolinium containing prussian blue nanoparticles as nontoxic MRI contrast agents having high relaxivity” (Kent State University, priority 2009, dated 2012).

Settings: magnetic field strength 1.5 Tesla; commercial or literature agents

CNC[C@H](O)[C@@H](O)[C@H](O)[C@H](O)CO.CNC[C@H](O)[C@@H](O)[C@H](O)[C@H](O)CO.O=C([O-])CN(CCN(CC(=O)[O-])CC(=O)O)CCN(CC(=O)[O-])CC(=O)O.[Gd+3] [Magnevist@]
relaxivity r1: 4.1 mM⁻¹ s⁻¹
